Assay results published in ChEMBL document CHEMBL1141825, “Chemistry of verongida sponges. 9.1 secondary metabolite composition of the caribbean sponge aplysina cauliformis” (J Nat Prod, 1999).
≈ marks a conversion by molar mass, not a printed value.

Test system: HeLa
Assay: Antiproliferative activity against human HeLa cells assessed as [3H]thymidine incorporation after 72 hrs by miniaturized, improved, nucleic acid precursor incorporation assay
Format: functional, cell-based

Q: With `COC(=O)NCC(=O)CCNC(=O)C1=NO[C@]2(C=C(Br)C(OC)=C(Br)[C@@H]2O)C1` as the compound, how does the IC50 read?
A: Its IC50 is 50 µg/mL (≈ 95.2 µM).
